# How the values were obtained:
# [1] = system: CHO cell line producing mAb1; test: Glycosylation profile (UPLC-MS of released glycans) of mAb1 from fed-batch; assay type: cell-based, Chinese hamster; conditions: for reduction of the fucosylation compared to the control: mAb1, same concentration of both additives; for fucosylation level / incorporation of the fucose-analogue: mean of day 7, 10 and 12
# Description: (§1) Glycosylation patterns were analyzed by ultra-performance liquid chromatography coupled to a mass spectrometer (UPLC-MS). The purified antibody was denaturated and the glycans were released from the antibody by digestion with peptide N-glycosidase F (PNGase F) followed by labeling the glycans with the GlycoWorks™ RapiFluor-MS™ N-Glycan Kit according to the manufacturer protocol. For the analysis, an UPLC glycan column (2.1×150 mm) that separated the glycans according to their […] was used. The chromatography was performed at 45° C. using 50 mM ammonium formate (A), pH 4.4 solution and an acetonitrile (B) gradient. In detail, at the beginning the ratio of A:B was 20:80 (0 min) and changed to 27:73 at 3 min and 37:63 at 35 min at a flow rate of 0.5 ml/min. From 36.5 min to 39.5 min only A was used as mobile phase and the flow rate was reduced to 0.2 ml/min. Subsequently, the ratio was changed to 20% A:80% B and the flowrate was increased to 0.5 ml/min at 43.1 min until the end of the process at 55 min. The detection was performed by a fluorescence detector with an excitation wavelength of 265 nm and an emission wavelength of 425 nm. The identification of the glycan structures was performed by MS using positive electro spray ionization (ESI), which was calibrated every 30 s with a standard.
# (§2) Four different clones of Chinese hamster ovary (CHO) cells expressing three different monoclonal antibodies (mAb) and a fusion protein were tested. Cells were cultivated in spin tubes between 14 and 20 days at 37° C., 5% CO2, and 80% humidity. As starting cell density, 3×10^5 cells/mL in 30 mL Cellvento®4CHO media (pH 7.0±0.1) was used for clone 1 and 2 producing mAb1 and mAb2, respectively (Cellvento® Platform). Cells were cultivated at an agitation of 320 rpm and were fed on day 3, 5, 10, 12 and 14 with 3% volume of Cellvento® 4Feed (v/v) and on day 7 with 6% (v/v) of the feed. Clone 3 and 4 producing mAb3 and a fusion protein were inoculated at the same cell density in 30 mL Ex-Cell® Advanced Media (pH 7.2±0.1) while agitation was set to 230 rpm (Ex-Cell® Platform). Clones 3 and 4 were fed with […] Advanced Feed (v/v) on day 3, 5, 7, 10, 12, 14 and 17. […] The pH of all Cellvento® feeds was adjusted to 7.0±0.1 and Ex-Cell® Feeds were adjusted to 8.5±0.1. The glucose level was maintained above 4 g/L by adding a specific amount of a 400 g/L glucose stock solution on demand to up to 6 g/L during the week and up to 13 g/L over the weekend. Glucose and titer were detected in the supernatant with the bioprocess analyzer CEDEX Bio HT (Roche, Mannheim, Germany).
# (§3) To investigate the glycosylation profile during the fed-batch experiment samples were centrifugated and antibodies and Fc-fusion proteins were purified from the cell culture supernatant using protein A PhyTips® (PhyNexus Inc, San Jose, Calif.). Glycosylation patterns were analyzed as described by ultra-performance liquid chromatography coupled to a mass spectrometer (UPLC-MS) using the GlycoWorks™ RapiFluor-MS™ N-Glycan Kit.
# (§4) Glycosylation profile on day 12 was visualized since harvest of recombinant produced proteins on day 12 is common. Quantification of the glycans was obtained using the relative peak area of the fluorescence signal. Almost all peaks were assigned to glycan structures according to their mass. Unknown glycan structures and signals without mass detection were summarized as unknown species (not shown). Four different clones of Chinese hamster ovary (CHO) cells expressing three different monoclonal antibodies (mAb) and a fusion protein were tested. […] The known positive control achieved a […] level on day 12 by increasing the afucosylation to 78%. The same amount of afucosylation compared to the known fucose-analogue acetylated 2F-Fucose was only achieved by clone 3 expressing mAb3 leading to about […] on day 12 (FIG. 8 C). […]
# [2] = system: CHO cell line producing mAb2; test: Glycosylation profile (UPLC-MS of released glycans) of mAb2 from fed-batch; assay type: cell-based, Chinese hamster; conditions: mAb2, 400 μM additive, day 12
# Description: as §1, §2, §3
# Glycosylation profile on day 12 was visualized since harvest of recombinant produced proteins on day 12 is common. Quantification of the glycans was obtained using the relative peak area of the fluorescence signal. Almost all peaks were assigned to glycan structures according to their mass. Unknown glycan structures and signals without mass detection were summarized as unknown species (not shown). […]
# [3] = system: CHO cell line producing mAb3; test: Glycosylation profile (UPLC-MS of released glycans) of mAb3 from fed-batch; assay type: cell-based, Chinese hamster; conditions: mAb3, 400 μM additive
# Description: as §1, §2, §3, §4
# [4] = system: CHO cell line producing a fusion protein; test: Glycosylation profile (UPLC-MS of released glycans) of fusion protein from fed-batch; assay type: cell-based, Chinese hamster; conditions: 400 μM additive, day 12
# Description: as §1, §2, §3
# Glycosylation profile on day 12 was visualized since harvest of recombinant produced proteins on day 12 is common. Quantification of the glycans was obtained using the relative peak area of the fluorescence signal. Almost all peaks were assigned to glycan structures according to their mass. Unknown glycan structures and signals without mass detection were summarized as unknown species (not shown). Four different clones of Chinese hamster ovary (CHO) cells expressing three different monoclonal antibodies (mAb) and a fusion protein were tested. […] The known positive control achieved a 14% fucosylation level on day 12 by increasing the afucosylation to 78%. The same amount of afucosylation compared to the known fucose-analogue acetylated 2F-Fucose was only achieved by clone 3 expressing mAb3 leading to about 34% afucosylation on day 12 (FIG. 8 C).
# FcγRIIIa V176 = test: Surface plasmon resonance (Biacore) binding of mAb3 from treated cultures to FcγRIIIa; conditions: for Fold change (affinity vs control): mAb3, 400 μM additive; for Kd: mAb3 from culture fed with 400 μM additive
# Description: Binding of samples after 5-ThioFuc treatment was investigated by surface plasmon resonance technology using a Biacore T200 system (GE Healthcare, Uppsala, Sweden). The analysis temperature was set to 25° C. and sample compartment temperature to 15° C. […] The anti-His antibody was further used to capture His-tagged FcγRIIIa V176 ([…]) from AcroBiosystems (Newark, Del., USA).
# Binding was recorded continuously, while unspecific binding and injection artefacts were subtracted automatically. Single-cycle kinetics were used with a dissociation time of 600 s at a flow rate of 30 μL/min. Data collection rate was performed at 10 Hz. Following each experiment, both flow cells were regenerated for 30 s with 10 mM glycine-HCl pH 1.5 according to kit instructions. Data of three technical and two biological replicates were fitted with a 1:1 binding model. The global dissociation constant KD was determined from the ratio of the kinetic rate constants for dissociation (kd) and association (ka) values. Data are presented in Table 1 as fold change compared to the control.
# [5] = system: CHO cell line producing mAb3; test: Fed-batch cell performance (viable cell density), clone 3 producing mAb3; assay type: cell-based, Chinese hamster; conditions: mAb3, feed with 400 μM additive
# Description: Four different clones of Chinese hamster ovary (CHO) cells expressing three different monoclonal antibodies (mAb) and a fusion protein were tested. Cells were cultivated in spin tubes between 14 and 20 days at 37° C., 5% CO2, and 80% humidity. As starting cell density, 3×10^5 cells/mL in 30 mL Cellvento®4CHO media (pH 7.0±0.1) was used for clone 1 and 2 producing mAb1 and mAb2, respectively (Cellvento® Platform). Cells were cultivated at an agitation rate of 320 rpm and were fed on day 3, 5, 10, 12 and 14 with 3% volume of Cellvento® 4Feed (v/v) and on day 7 with 6% (v/v) of the feed. Clone 3 and 4 producing mAb3 and a fusion protein were inoculated at the same cell density in 30 mL Ex-Cell® Advanced Media (pH 7.2±0.1) while agitation was set to 230 rpm. Clones 3 and 4 were fed with 5% Ex-Cell® Advanced Feed (v/v) on day 3, 5, 7, 10, 12, 14 and 17. […]
# The glucose level was maintained above 4 g/L by adding a specific amount of a 400 g/L glucose stock solution on demand to up to 6 g/L during the week and up to 13 g/L over the weekend. Glucose and titer were detected in the supernatant with the bioprocess analyzer CEDEX Bio HT (Roche, Mannheim, Germany) based on spectrophotometric and turbidometric methods. The viable cell density (VCD) and viability were evaluated with a Vi-CELL™ XR 2.04 cell counter (Beckman Coulter, Fullerton, Calif., USA). […]
# [6] = day 12, listed as acetylated 2F-Fucose
molecule,measurement,setting,value
"CC(=O)OC1O[C@@H](C)[C@@H](OC(C)=O)[C@@H](OC(C)=O)[C@@H]1F (stereo partly shown) [2F-Peracetylfucose, reference compound]",afucosylation,"[1]; mAb1, 400 μM additive, day 12",60%
same,core-fucosylated glycans,"[1]; mAb1, 400 μM additive, day 12",36%
same,reduction of the fucosylation compared to the control,[1]; day 7,11%
same,reduction of the fucosylation compared to the control,[1]; day 10,50%
same,reduction of the fucosylation compared to the control,[1]; day 12,58%
same,afucosylation,[2],78%
same,core-fucosylation,[2],14%
same,% Afucosylated,[3]; day 5,14.9%
same,% fucose analogue (incorporated),[3]; day 5,0.3%
same,% Fucosylated,"[3]; day 5, listed as 2F-PerAcFuc",83.9%
same,% Fucosylated,"[3]; day 5, listed as acetylated 2F-Fucose",about 84%
same,fucosylation level,[3]; day 7,about 78%
same,fucosylation level,[3]; day 10,~72%
same,% fucose analogue (incorporated),[3]; day 12,0.2%
same,% Afucosylated,"[3]; day 12, listed as 2F-PerAcFuc",34.2%
same,% Fucosylated,"[3]; day 12, listed as 2F-PerAcFuc",64.8%
same,% Afucosylated,[3]; [6],about 34%
same,% Fucosylated,[3]; [6],65%
same,% Afucosylated,[3]; day 14,40.9%
same,% fucose analogue (incorporated),[3]; day 14,0.12%
same,% Fucosylated,"[3]; day 14, listed as 2F-PerAcFuc",57.4%
same,% Fucosylated,"[3]; day 14, listed as acetylated 2F-Fucose",~57%
same,afucosylation,[4],82%
same,incorporation of fucose analogue (% of the glycans),[4],without detectable incorporation
same,Fold change (affinity vs control),FcγRIIIa V176; day 5,1.3 fold
same,Fold change (affinity vs control),FcγRIIIa V176; day 12,3.6 fold
same,Fold change (affinity vs control),FcγRIIIa V176; day 14,4.4 fold
same,Kd,FcγRIIIa V176; day 5,78 nM
same,Kd,FcγRIIIa V176; day 12,34 nM
same,Kd,FcγRIIIa V176; day 14,23 nM
acetylated 5-Thio-L-Fucose,"reduced VCD (area under the curve until day 17, compared to the control)",[5],~24%
same,fucosylation level,"[1]; mAb1, 200 μM additive",46%
same,incorporation of the fucose-analogue,"[1]; mAb1, 200 μM additive",50%
same,core-fucosylated glycans,"[1]; mAb1, 400 μM additive, day 12",about 26%
same,incorporation of fucose analogue (% of the glycans),"[1]; mAb1, 400 μM additive, day 12",about 70%
same,fucosylation level,"[1]; mAb1, 400 μM additive",16%
same,incorporation of the fucose-analogue,"[1]; mAb1, 400 μM additive",81%
same,fucosylation level,"[1]; mAb1, 800 μM additive",9%
same,incorporation of the fucose-analogue,"[1]; mAb1, 800 μM additive",87%
same,core-fucosylation,[2],8%
same,afucosylation,[4],52%
same,incorporation of fucose analogue (% of the glycans),[4],39%
same,reduction of core-fucosylation compared to the control,[4],about 63%
